# Reference: US9562033B2, “Inhibitors of viral replication, their process of preparation and their therapeutical uses” (LABORATOIRE BIODIM, priority 2012, dated 2017)
# Tested on: NL4-3 strain of HIV-1
# Assay: HIV-1 replication inhibition: cyto-protection of MT4 cells infected with NL4-3 virus (CellTiter-Glo viability assay)
# Assay type: cell-based
# Conditions: Human immunodeficiency virus 1, NL43, 120 h, concentration leading to 50% of cyto-protection, 5 days incubation
# Experimental: The antiviral activity, particularly against HIV, of compounds according to the invention is evaluated by the protocol described below.
# Preparation of Virus Stock of the NL4-3 Strain of HIV-1
# The virus was prepared as described in Lopez et al (Lopez et al, Proc Natl Acad Sci USA., 2006, 103(40):14947-52, by transfecting 2×10^6 293 T cells (CRL-1573, ATCC) with following modifications: 6 μg of NL4-3 proviral DNA molecular clone were mixed with Fugene 6 transfection reagent from Roche, and used according to manufacturer's instructions. Forty eight hours later, transfected cell supernatants were harvested, filtered through 0.45-μm-pore-size filters, quantified for HIV-1 p24 antigen by using a Innotest HIV antigen mAb assay (Ingen) according to manufacturer's instructions, and used in infection experiments.
# Preparation of Compounds:
# Serial dilutions of compounds to be tested were prepared in complete RPMI medium from 10 mM DMSO stock solutions, and distributed in a volume of 20 µl in 96 well Falcon 353072 Microtest™ tissue culture plate, in order to get 0.5% DMSO final concentration in each well, after the addition of infected cells. Control wells contained also 0.5% DMSO final concentration but no compound.
# MT4 cells (from the NIH AIDS Research and Reference Reagent Program) in RPMI complete medium were counted (10×10^6 cells per well in Falcon 353047 Multiwell™ 24 well) and infected for 2 hours at 37°, at a multiplicity of infection (moi) of 0.0001-0.00001. Cells were then centrifuged 3 min at 3000 rpm, and washed two times in 1 ml PBS to remove viruses that have not entered in cells. Infected cells were resuspended in complete RPMI at 1.25×10^6 cells/ml, and 80 µl of infected cells were distributed in each well containing compounds to be tested or control wells. The plates were then incubated at 37° for 5 days.
# Assay Used to Measure the Inhibition of HIV Replication by the Compounds
# (according to Gregg S. Jones et al., Antimicrobial Agents and Chemotherapy, 2009, 53 (3): 1194-1203).
# After 5 days of incubation, […] of CellTiter-Glo reagent (Promega Biosciences, Inc., Madison Wis., USA) were added to each well. Cell lysis was carried out at room temperature during 10 min, 150 μl of lysates were transferred in Packard Optiplate 96 well, and luminescence was read on a Fluoroskan (Thermo Scientific).
row,Structure (SMILES),EC50
1,"CNC(=O)c1cccc(-c2sc(C)c(C(OC(C)(C)C)C(=O)O)c2C2=CCC(C)(C)CC2)c1 (stereo not shown) [Example 41, 2-(tert-butoxy)-2-[4-(4,4-dimethylcyclohex-1-en-1-yl)-2-methyl-5-(methylaminocarbonylphen-3-yl)thiophen-3-yl]acetic acid]",50 nM
2,"CNC(=O)c1ccc(-c2sc(C)c(C(OC(C)(C)C)C(=O)O)c2C2=CCC(C)(C)CC2)cc1 (stereo not shown) [Example 29, 2-(tert-butoxy)-2-[4-(4,4-dimethylcyclohex-1-en-1-yl)-2-methyl-5-(N-methyl-4-aminocarbonylphenyl)thiophen-3-yl]acetic acid]",90 nM
3,"Cc1sc(-c2ccsn2)c(-c2ccc3c(c2)CCCO3)c1C(OC(C)(C)C)C(=O)O (stereo not shown) [Example 86, 2-(tert-butoxy)-2-[4-(3,4-dihydro-2H-1-benzopyran-6-yl)-2-methyl-5-(1,2-thiazol-3-yl)thiophen-3-yl]acetic acid]",270 nM
4,"Cc1sc(-c2cccs2)c(-c2ccc3c(c2)CCCO3)c1C(OC(C)(C)C)C(=O)O (stereo not shown) [Example 23, 2-(tert-butoxy)-2-[4-(3,4-dihydro-2H-1-benzopyran-6-yl)-2-methyl-5-(thiophen-2-yl)thiophen-3-yl]acetic acid]",170 nM
5,"Cc1sc(-c2ccccc2)c(C2=CCC(C)(C)CC2)c1C(OC(C)(C)C)C(=O)O (stereo not shown) [Example 44, 2-(tert-butoxy)-2-[4-(4,4-dimethylcyclohex-1-en-1-yl)-2-methyl-5-phenylthiophen-3-yl]acetic acid]",230 nM
6,"CNC(=O)c1ccccc1-c1sc(C)c(C(OC(C)(C)C)C(=O)O)c1C1=CCC(C)(C)CC1 (stereo not shown) [Example 56, 2-(tert-butoxy)-2-{2-methyl-4-[4,4-dimethylcyclohex-1-en-1-yl]-5-(N-methylbenzamide-2-yl)thiophen-3-yl}acetic acid]",120 nM
7,"CCCc1cccc(-c2sc(C)c(C(OC(C)(C)C)C(=O)O)c2C2=CCC(C)(C)CC2)n1 (stereo not shown) [Example 51, 2-(tert-butoxy)-2-{2-methyl-4-[4,4-dimethylcyclohex-1-en-1-yl]-5-(6-(n-propyl)pyridin-2-yl)thiophen-3-yl}acetic acid]",270 nM
8,"CCOC(C(=O)O)c1c(C)sc(-c2ccncc2)c1C1=CCC(C)(C)CC1 (stereo not shown) [Example 64, 2-[4-(4,4-dimethylcyclohex-1-en-1-yl)-2-methyl-5-(pyridin-4-yl)thiophen-3-yl]-2-ethoxyacetic acid]",710 nM
9,"Cc1sc(-c2ccncc2)c(-c2cc(F)c3c(c2C)CCCO3)c1C(OC(C)(C)C)C(=O)O (stereo not shown) [Example 39, 2-(tert-butoxy)-2-[4-(8-fluoro-5-methyl-3,4-dihydro-2H-1-benzopyran-6-yl)-2-methyl-5-(pyridin-4-yl)thiophen-3-yl]acetic acid]",730 nM
10,"Cc1sc(-c2cc(F)c3c(c2)CCCO3)c(-c2cc(F)c3c(c2)CCCO3)c1C(OC(C)(C)C)C(=O)O (stereo not shown) [Example 75, 2-[4,5-bis(8-fluoro-3,4-dihydro-2H-1-benzopyran-6-yl)-2-methylthiophen-3-yl]-2-(tert-butoxy)acetic acid]",2400 nM
11,"Cc1sc(-c2ccncc2)c(C2=CCC(C)CC2)c1C(OC(C)(C)C)C(=O)O (stereo not shown) [Example 10, 2-(tert-butoxy)-2-[2-methyl-4-(4-methylcyclohex-1-en-1-yl)-5-(pyridin-4-yl)thiophen-3-yl]acetic acid]",140 nM
12,"Cc1sc(-c2ccncc2)c(C2=CCC(CF)(CF)CC2)c1C(OC(C)(C)C)C(=O)O (stereo not shown) [Example 48, [4-(4,4-bis-fluoromethyl-cyclohex-1-enyl)-2-methyl-5-pyridin-4-yl-thiophen-3-yl]-tert-butoxy-acetic acid]",130 nM
13,"CCCNC(=O)c1ccc(-c2sc(C)c(C(OC(C)(C)C)C(=O)O)c2C2=CCC(C)(C)CC2)cc1 (stereo not shown) [Example 36, 2-(tert-butoxy)-2-[4-(4,4-dimethylcyclohex-1-en-1-yl)-2-methyl-5-[4-(propylcarbamoyl)phenyl]thiophen-3-yl]acetic acid]",100 nM
